This note sets out measurements from patent US20240336608A1, “IL4I1 INHIBITORS AND METHODS OF USE” (Merck Sharp & Dohme LLC, priority 2023, published 2024).

SMILES strings stand for the structures.

For the assay, the target named is T1, recombinant IL4I1 (Homo sapiens, UniProt Q96RQ9).
T1 construct: purchased R&D Systems 5684-AO-020
T1 sequence (Q96RQ9 22-567): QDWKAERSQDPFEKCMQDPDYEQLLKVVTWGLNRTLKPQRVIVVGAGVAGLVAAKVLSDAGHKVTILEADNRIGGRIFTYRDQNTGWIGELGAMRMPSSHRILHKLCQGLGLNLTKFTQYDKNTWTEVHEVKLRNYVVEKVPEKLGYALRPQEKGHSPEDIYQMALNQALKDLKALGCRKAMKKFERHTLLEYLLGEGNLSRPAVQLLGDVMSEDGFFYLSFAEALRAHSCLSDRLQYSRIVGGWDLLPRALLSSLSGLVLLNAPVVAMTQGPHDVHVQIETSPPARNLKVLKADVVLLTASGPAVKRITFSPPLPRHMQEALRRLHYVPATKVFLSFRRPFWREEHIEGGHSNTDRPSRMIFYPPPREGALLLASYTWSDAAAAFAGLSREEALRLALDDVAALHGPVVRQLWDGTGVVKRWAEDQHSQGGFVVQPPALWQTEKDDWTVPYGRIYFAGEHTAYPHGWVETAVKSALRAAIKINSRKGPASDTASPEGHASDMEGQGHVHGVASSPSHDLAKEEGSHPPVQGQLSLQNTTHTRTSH
The experiment in a line: IL4I1 Enzymatic Assay (Amplex Red/HRP coupled detection of H2O2, fluorescence). Type of assay: biochemical. The conditions noted are these: 1 nM recombinant IL4I1; four-hour pre-incubation with compound; 1 mM each Phe, Tyr, Trp; ten-point titration. Put shortly:
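Recombinant IL4I1 (1 nM final) pre-incubated 4 h at ambient temperature with compound (0.5% DMSO) in 50 mM Hepes pH 7.0, 0.005% Tween20; reaction started with 1 mM each Phe/Tyr/Trp plus excess Amplex Red/HRP, run 120 min. H2O2 read as resorufin fluorescence; EC50 from 10-point four-parameter fit.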
For the molecule `Cc1nc(C#N)ccc1-n1cc(C(=O)NCc2nnc(-c3ccccc3)s2)nn1` [Example 335, 1-(6-cyano-2-methylpyridin-3-yl)-N-((5-phenyl-1,3,4-thiadiazol-2-yl)methyl)-1H-1,2,3-triazole-4-carboxamide], the EC50 is 10 nM.

On to `CCc1ccc(-n2cc(C(=O)NCc3nnc(-c4ccccc4)s3)nn2)c(C)n1` [Example 336, 1-(6-ethyl-2-methylpyridin-3-yl)-N-((5-phenyl-1,3,4-thiadiazol-2-yl)methyl)-1H-1,2,3-triazole-4-carboxamide], for which the EC50 is 9 nM.

Take `Cc1ccc(-n2cc(C(=O)NCc3nnc(-c4ccccc4)s3)nn2)c(C#N)n1` [Example 337, 1-(2-cyano-6-methylpyridin-3-yl)-N-((5-phenyl-1,3,4-thiadiazol-2-yl)methyl)-1H-1,2,3-triazole-4-carboxamide]: the EC50 amounted to 53 nM.

Take `Cc1ccc(-n2cc(C(=O)NCc3nnc(-c4ccccc4)s3)nn2)c(C(C)(C)O)n1` [Example 338, 1-(2-(2-hydroxypropan-2-yl)-6-methylpyridin-3-yl)-N-((5-phenyl-1,3,4-thiadiazol-2-yl)methyl)-1H-1,2,3-triazole-4-carboxamide]: the EC50 came out at 24 nM.

On to `Cc1ccc(-n2cc(C(=O)NCc3nnc(-c4ccccc4)s3)nn2)c(=O)[nH]1` [Example 339, 1-(6-methyl-2-oxo-1,2-dihydropyridin-3-yl)-N-((5-phenyl-1,3,4-thiadiazol-2-yl)methyl)-1H-1,2,3-triazole-4-carboxamide], for which the EC50 was 174 nM.

Regarding `Cc1ccc(-n2cc(C(=O)NCc3nnc(-c4ccccc4)s3)nn2)c(N)n1` [Example 340, 1-(2-amino-6-methylpyridin-3-yl)-N-((5-phenyl-1,3,4-thiadiazol-2-yl)methyl)-1H-1,2,3-triazole-4-carboxamide], the EC50 was determined as 36 nM.

For the molecule `Cc1nc(S(C)(=O)=O)ccc1-n1cc(C(=O)NCc2nnc(-c3ccccc3)s2)nn1` [Example 341, 1-(2-methyl-6-(methylsulfonyl)pyridin-3-yl)-N-((5-phenyl-1,3,4-thiadiazol-2-yl)methyl)-1H-1,2,3-triazole-4-carboxamide], the EC50 was found to be 271 nM.

On to `Cc1nc(N)ccc1-n1cc(C(=O)NCc2nnc(-c3ccccc3)s2)nn1` [Example 342, 1-(6-amino-2-methylpyridin-3-yl)-N-((5-phenyl-1,3,4-thiadiazol-2-yl)methyl)-1H-1,2,3-triazole-4-carboxamide], for which the EC50 was determined as 5 nM.

On to `O=C(NCc1nnc(-c2ccccc2)s1)c1cn(CC2(CO)CC2)nn1` [Example 343, 1-((1-(hydroxymethyl)cyclopropyl)methyl)-N-((5-phenyl-1,3,4-thiadiazol-2-yl)methyl)-1H-1,2,3-triazole-4-carboxamide], for which the EC50 turned out to be 92 nM.

For the molecule `Cc1n[nH]c(C)c1-n1cc(C(=O)NCc2nnc(-c3ccccc3)s2)nn1` [Example 346, 1-(3,5-dimethyl-1H-pyrazol-4-yl)-N-((5-phenyl-1,3,4-thiadiazol-2-yl)methyl)-1H-1,2,3-triazole-4-carboxamide], the EC50 worked out at 108 nM.

On to `O=C(NCc1nnc(-c2ccncc2)s1)c1cn(CC(F)F)nn1` [Example 347, 1-(2,2-difluoroethyl)-N-((5-(pyridin-4-yl)-1,3,4-thiadiazol-2-yl)methyl)-1H-1,2,3-triazole-4-carboxamide], for which the EC50 came to 7 nM.
